SMILES strings stand for the structures. Like-named read-outs stand apart in the source and are kept apart here.

This experiment relates to iCell cardiomyocytes (human iPSC-derived cardiomyocytes). The experiment in a line: High-content imaging of cytotoxicity and mitochondrial integrity in iPSC-CMs. Format: cell-based. As to conditions: Homo sapiens; for viability at 0.01 µM / activity at 0.01 µM / viability at 0.1 µM / activity at 0.1 µM / viability at 1 µM / activity at 1 µM / viability at 10 µM / activity at 10 µM / viability at 100 µM / activity at 100 µM: 0.00 µM = 100.00; for viability at 0.1 µM / activity at 0.1 µM: 0.10 µM. In short, it runs like this: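 Readouts from high-content images were normalized to vehicle controls containing 0.5% vol/vol DMSO. They were fit to a four-parameter logistic model in R. Points of departure were set using a cutoff of one standard deviation across vehicle control means. Where no concentration–response was seen, the top tested concentration of 100μM was assigned as the no observable adverse effect level.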

Where [1] appears, read: Cardiomyocyte, 1.5 h, read-out: cm.cam.90min.
Setting [2] is: Cardiomyocyte, 1.5 h, read-out: cm.mii.90min.
Setting [3] is: Cardiomyocyte, 1.5 h, read-out: cm.mito.90min.
Where [4] appears, read: Cardiomyocyte, 1.5 h, read-out: cm.tc.90min.
[5] abbreviates: Cardiomyocyte, 24 h, read-out: cm.cam.24hrs.
Setting [6] is: Cardiomyocyte, 24 h, read-out: cm.mii.24hrs.
The mark [7] stands for this setting: Cardiomyocyte, 24 h, read-out: cm.mito.24hrs.
The mark [8] stands for this setting: Cardiomyocyte, 24 h, read-out: cm.tc.24hrs.
[9] abbreviates: Cardiomyocyte, 1.5 h, cardiomyocytes (cm), cam, 90 min, read-out: POD cm.cam.90min.
Where [10] appears, read: Cardiomyocyte, 1.5 h, cardiomyocytes (cm), mii, 90 min, read-out: POD cm.mii.90min.
The mark [11] stands for this setting: Cardiomyocyte, 1.5 h, cardiomyocytes (cm), mito, 90 min, read-out: POD cm.mito.90min.
The mark [12] stands for this setting: Cardiomyocyte, 1.5 h, cardiomyocytes (cm), tc, 90 min, read-out: POD cm.tc.90min.
Setting [13] is: Cardiomyocyte, 24 h, cardiomyocytes (cm), cam, 24 hrs, read-out: POD cm.cam.24hrs.
Where [14] appears, read: Cardiomyocyte, 24 h, cardiomyocytes (cm), mii, 24 hrs, read-out: POD cm.mii.24hrs.
[15] abbreviates: Cardiomyocyte, 24 h, cardiomyocytes (cm), mito, 24 hrs, read-out: POD cm.mito.24hrs.
The mark [16] stands for this setting: Cardiomyocyte, 24 h, cardiomyocytes (cm), tc, 24 hrs, read-out: POD cm.tc.24hrs.

On to `COc1ccc(-c2ccc(Cl)cc2)cc1` [4'-OMe PCB3], for which the viability at 0.01 µM was 95% under setting [1], 94.9% under setting [4], 104% under setting [5] and 105% under setting [8]. The activity at 0.01 µM runs as follows: under setting [2], 107%; under setting [3], 94.4%; under setting [6], 87%; under setting [7], 105%. Also, the viability at 0.1 µM runs as follows: under setting [1], 96%; under setting [4], 96.1%; under setting [5], 102%; under setting [8], 102%. Further, the activity at 0.1 µM under setting [2] came to 114%, the activity at 0.1 µM under setting [3] stood at 96%, the activity at 0.1 µM under setting [6] was determined as 85.8% and the activity at 0.1 µM under setting [7] was 104%. The viability at 1 µM amounted to 103% under setting [1], 103% under setting [4], 104% under setting [5] and 104% under setting [8]. Also, the activity at 1 µM under setting [2] was 103%, the activity at 1 µM under setting [3] is 102%, the activity at 1 µM under setting [6] was 98% and the activity at 1 µM under setting [7] came to 104%. Also, the viability at 10 µM under setting [1] is 102%, the viability at 10 µM under setting [4] came out at 101%, the viability at 10 µM under setting [5] worked out at 104% and the viability at 10 µM under setting [8] came to 104%. Further, the activity at 10 µM stood at 109% under setting [2], 101% under setting [3], 83.8% under setting [6] and 104% under setting [7]. Further, the viability at 100 µM under setting [1] was determined as 104%, the viability at 100 µM under setting [4] came out at 105%, the viability at 100 µM under setting [5] amounted to 92.3% and the viability at 100 µM under setting [8] was 92.4%. The activity at 100 µM is 99.8% under setting [2], 104% under setting [3], 122% under setting [6] and 94.2% under setting [7]. Also, the minimal effective concentration was determined as 100 µM (iPSC-CM, 1.5 h, iPSC-CM, read-out: cm.cam.90min POD); 100 µM (iPSC-CM, 1.5 h, iPSC-CM, read-out: cm.mii.90min POD); 100 µM (iPSC-CM, 1.5 h, iPSC-CM, read-out: cm.mito.90min POD); 100 µM (iPSC-CM, 1.5 h, iPSC-CM, read-out: cm.tc.90min POD); 82.9 µM (iPSC-CM, 24 h, iPSC-CM, read-out: cm.cam.24hrs POD); 100 µM (iPSC-CM, 24 h, iPSC-CM, read-out: cm.mii.24hrs POD). The minimal effective concentration is, setting by setting: (iPSC-CM, 24 h, iPSC-CM, read-out: cm.mito.24hrs POD) 100 µM; (iPSC-CM, 24 h, iPSC-CM, read-out: cm.tc.24hrs POD) 100 µM.

`Oc1cc(Cl)cc(-c2cccc(Cl)c2)c1` [5-OH-PCB 11]: the minimal effective concentration reads like this: under setting [9], 16.2 µM; under setting [10], 34.1 µM; under setting [11], 13.8 µM; under setting [12], 14 µM; under setting [13], 13.8 µM; under setting [14], 8.43 µM. In addition, the minimal effective concentration runs as follows: under setting [15], 14.6 µM; under setting [16], 10.7 µM.

For `COc1cc(Cl)c(-c2cc(Cl)ccc2Cl)cc1Cl` [4-OMe-PCB 52, 4-methoxy-2,2′,5,5′-tetrachlorobiphenyl], the minimal effective concentration runs as follows: under setting [9], 27.6 µM; under setting [10], 57.2 µM; under setting [11], 18.6 µM; under setting [12], 33 µM; under setting [13], 33 µM; under setting [14], 5.58 µM. For the same compound, the minimal effective concentration under setting [15] is 35.8 µM and the minimal effective concentration under setting [16] came to 35 µM.

(Values after publication PMC7377239, “Cardiovascular Effects of Polychlorinated Biphenyls and Their Major Metabolites” (Environmental Health Perspectives, 2020).)
